Positions count from the first letter of the chain named.
Key:
Assay type in all cases: biochemical
[1] = molecular target: T1, NTAN1 Q51A (Homo sapiens, UniProt Q96AB6, Q51A); experiment: In vitro deamidation assay, NTAN1 Q51A mutant; settings: substrate NRAAA, 100 μM, 37 °C, pH 7.0, LC-MS (Figure 3e); three independent experiments
T1 construct: The gene for full-length NTAN1 was cloned into pET-21a(+); made in house; host or cells: E. coli Rosetta 2(DE3)
T1 sequence (Q96AB6 1-310 Q51A): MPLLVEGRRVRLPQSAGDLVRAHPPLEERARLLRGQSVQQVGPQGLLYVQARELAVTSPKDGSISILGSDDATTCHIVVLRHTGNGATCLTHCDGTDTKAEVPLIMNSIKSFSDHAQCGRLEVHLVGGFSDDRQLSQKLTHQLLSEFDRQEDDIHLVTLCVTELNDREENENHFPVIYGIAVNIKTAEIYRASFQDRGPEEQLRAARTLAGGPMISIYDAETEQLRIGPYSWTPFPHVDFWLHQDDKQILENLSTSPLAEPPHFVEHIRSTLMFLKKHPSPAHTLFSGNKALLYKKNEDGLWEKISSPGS
Text: (§1) NTAN1 mutants were constructed using QuikChange Ⅱ Site-Directed Mutagenesis Kit (Agilent Technologies, Santa Clara, CA, USA). NTAN1 mutants, Q51A, S69A, T73A, T74A, C75A, H92A, S254A, T255A, and E260A were generated. The mutants were expressed and purified as for NTAN1.
(§2) Peptides with Nt-Asn which mimic potential substrates of NTAN1 were synthesized: NRA, NRAA, NRAAA, NRQVA, NRQVAA, NRQVAAA, NFAAR, NLAAR, NRAAR, NAAAR, NNAAR, NPAAR, NGAAR, and NDAAR. Non-Nt-Asn peptides, QRAAA and VRAAA, were also synthesized. NTAN1 (at concentrations of 0.5 μM, 0.16 μM, or 0.04 μM) and the peptides (at a concentration of 100 μM) were mixed and incubated at 37 °C in a buffer containing 200 mM NaCl and 10 mM HEPES-NaOH (pH 7.0). […] The deamidation coefficient of peptides catalyzed by NTAN1 was assessed by the slope of exponential curve drawn from the concentration of the substrate over incubation time.
(§3) The peptides were quantified by an LC-MS system (1260 Infinity/6430 Triple Quad, Agilent Technologies) equipped with a binary pump (G1312B), a thermostated column compartment (G1316C), a thermostat (G1330B), and an autosampler (G1367E). […] The data acquisition and processing were performed by using MassHunter Workstation Software Quantitative Analysis (Version B.05.00; Agilent Technologies, Santa Clara, CA, USA). […]

[2] = molecular target: T2, NTAN1 H92A (Homo sapiens, UniProt Q96AB6, H92A); experiment: In vitro deamidation assay, NTAN1 H92A mutant; settings: substrate NRAAA, 100 μM, 37 °C, pH 7.0, LC-MS; vs wild-type (Figure 1f); three independent experiments
T2 construct: The gene for full-length NTAN1 was cloned into pET-21a(+); made in house; host or cells: E. coli Rosetta 2(DE3)
T2 sequence (Q96AB6 1-310 H92A): T1 sequence (Q96AB6 1-310 Q51A) with A51Q, H92A
Text: as §1, §2, §3

[3] = molecular target: T3, NTAN1 T74A (Homo sapiens, UniProt Q96AB6, T74A); experiment: In vitro deamidation assay, NTAN1 T74A mutant; settings: substrate NRAAA, 100 μM, 37 °C, pH 7.0, LC-MS (Figure 3f); three independent experiments
T3 construct: The gene for full-length NTAN1 was cloned into pET-21a(+); made in house; host or cells: E. coli Rosetta 2(DE3)
T3 sequence (Q96AB6 1-310 T74A): T1 sequence (Q96AB6 1-310 Q51A) with A51Q, T74A
Text: as §1, §2, §3

[4] = molecular target: T4, NTAN1 T73A (Homo sapiens, UniProt Q96AB6, T73A); experiment: In vitro deamidation assay, NTAN1 T73A mutant; settings: substrate NRAAA, 100 μM, 37 °C, pH 7.0, LC-MS (Figure 3g); three independent experiments
T4 construct: The gene for full-length NTAN1 was cloned into pET-21a(+); made in house; host or cells: E. coli Rosetta 2(DE3)
T4 sequence (Q96AB6 1-310 T73A): T1 sequence (Q96AB6 1-310 Q51A) with A51Q, T73A
Text: as §1, §2, §3

## NRAAA [synthesized peptide with Nt-Asn, 5 mer model substrate of NTAN1]
[1]
  Deamidation activity of NTAN1 Q51A: lost most deamidation activity
[2]
  Deamidation activity of NTAN1 H92A: completely abolished
[3]
  Enzymatic activity of NTAN1 T74A: abolished
[4]
  Enzymatic activity of NTAN1 T73A: abolished
